Measurements as given in PubChem BioAssay AID1996.
Converted amounts (≈) assume the structure as drawn.

Conditions: buffer; pH 7.4; 200.0 µM

solubility kinetic [µg/mL] | SMILES
29.7 (≈ 107 µM) | Cn1cnc(Sc2ncnc3nc[nH]c23)c1[N+](=O)[O-]
> 36.2 | Cc1ccc(CONC(=O)c2ccccc2)cc1
> 37.5 | Cn1cc([N+](=O)[O-])c(C(=O)NCc2ccco2)n1
> 47 | O=C(CC12CC3CC(CC(C3)C1)C2)Nc1ccc(C(=O)O)cc1
19.9 (≈ 72.8 µM) | COc1ccccc1NC(=O)NCc1ccc(C)n1C
> 46.6 | CC(C)CC(=O)Nc1ccc(S(=O)(=O)N2CCCC2)cc1
2.5 (≈ 10.6 µM) | O=c1[nH]c(Cc2ccccc2)nc2ccccc12
> 58.9 | Cn1c(N)c(C(=O)COC(=O)CNC(=O)c2ccccc2F)c(=O)n(C)c1=O
> 52 | CC(C)C(NC(=O)c1ccccc1F)C(=O)NCCCn1ccnc1 (stereo not given)
> 54.9 | CC1CC(C)CN(C(=O)C(C)N(C)CC(=O)Nc2ccccc2Cl)C1 (stereo not given)
6.4 (≈ 14.9 µM) | Cc1ccc(S(=O)(=O)N(C)CC(=O)NCC(=O)Nc2ccc(F)c(F)c2F)cc1
< 0.7 | COc1cc(C(=S)N2CCCC2)ccc1OCc1ccc(C)cc1
50.4 (≈ 146 µM) | CC(=O)N(CN1C(=O)C2C3C=CC(C3)C2C1=O)c1cccc(Cl)c1 (stereo not given)
10.3 (≈ 38.5 µM) | CCOC(=O)c1c[nH]c2ccc3ccccc3c2c1=O
4.4 (≈ 14.1 µM) | CCOc1ccc(NC(=O)CNC(=O)Cc2ccccc2)cc1
> 36.5 | Cc1cc(C)nc(NC(=O)c2ccccc2O)n1
53.4 (≈ 148 µM) | O=C(COC(=O)c1cnccn1)Nc1ncc(C(F)(F)F)cc1Cl
1.1 (≈ 4.01 µM) | CCc1nc2sc(C(C)=O)c(N)c2c2c1CCCC2
> 49.6 | CC(C)(C)NC(=O)N1CCN(c2ncccc2C(F)(F)F)CC1
5.9 (≈ 20.1 µM) | O=C(/C=C/c1ccccn1)c1cc(Cl)cc(Cl)c1O
< 0.3 | O=C(Nc1ccc2ccccc2n1)c1ccc(Cl)cc1
32.4 (≈ 127 µM) | CC(=O)c1ccc(NC(=O)Nc2cccnc2)cc1
6.7 (≈ 22.2 µM) | O=C1Nc2ccccc2C1=Nc1ccc(Br)cc1
> 48.4 | O=C(Nc1ccccc1C(=O)N1CCCCCC1)c1ccccc1

solubility kinetic [µg/mL] | SMILES
49.2 (≈ 134 µM) | COc1ccc(CCNC(=O)C2CCN(C(=O)c3ccccc3)CC2)cc1
> 44 | CCC(=O)Nc1ccc(C2C(=O)c3ccccc3C2=O)cc1
39.7 (≈ 144 µM) | Cc1ccc(NC(=O)NCc2cccnc2)cc1Cl
41.7 (≈ 129 µM) | CSc1nc(NCCCO)c2c3c(sc2n1)CN(C)CC3
> 41.3 | Cc1cccc(NC(=O)CNC(=O)c2cccs2)n1
> 46.5 | Cc1c(Cl)cccc1NC(=O)NCCCN1CCCC1=O
17 (≈ 56.2 µM) | COc1ccc(S(=O)(=O)n2cnc3ccccc32)c(C)c1
> 44.4 | Cc1cc(C)nc(NC(=O)c2c(Cl)cccc2Cl)n1
> 44.6 | O=C(Cn1cnc2c(oc3ccccc32)c1=O)N1CCCC1
30.6 (≈ 88.6 µM) | O=S(=O)(NCCc1ccccn1)c1ccc(-c2ccccn2)s1
0.9 (≈ 3.71 µM) | CC(=O)Nc1nc2c(ccc3ccccc32)s1
33.5 (≈ 147 µM) | Cc1ccc2[nH]c(C(F)(F)F)cc(=O)c2c1
> 27.8 | CCn1c(C)nc2cc(C#N)ccc21
> 61.7 | O=[N+]([O-])c1ccccc1S(=O)(=O)Nc1cccc(S(=O)(=O)N2CCCC2)c1
> 62.9 | CCN(CC(=O)Nc1ccc2c(c1)OCCO2)C(=O)c1ccccc1Br
0.5 (≈ 1.57 µM) | CN1CCSc2ccc(C(=O)Nc3ccc(Cl)cc3)cc21
> 35.9 | CCC(C(=O)O)N1C(=O)C2CCCCC2C1=O (stereo not given)
38.7 (≈ 137 µM) | Cc1ccc2oc(C(=O)NCc3ncc(C)[nH]3)c(C)c2c1
> 51.4 | COc1ccc(S(=O)(=O)NCCCN2CCCC2=O)c(OC)c1
11.1 (≈ 33.2 µM) | CN(Cc1ccccc1N1CCCC1)C(=O)c1cc2ccccc2o1
2.2 (≈ 6.08 µM) | O=C(CSc1nccc(-c2cccs2)n1)Nc1cccc(Cl)c1
7.2 (≈ 23.2 µM) | CCCNC(=O)CSc1nc2ccc(OCC)cc2s1
> 30.5 | O=C(NCCCc1ccccc1)C1CC1
> 43.6 | Cc1ccc(NS(=O)(=O)N2CCOCC2)cc1Cl

solubility kinetic [µg/mL] | SMILES
> 44.2 | COc1ccc(OCCSc2ncc(CO)n2C)cc1
29.6 (≈ 144 µM) | COc1ccccc1CC(=O)NC1CC1
3.3 (≈ 11.5 µM) | O=C(Nc1ccc(NC(=O)C2CC2)cc1)c1cccs1
> 46.8 | COc1cc(OC)cc(C(=O)N2CC(=O)Nc3ccccc32)c1
3.4 (≈ 9.57 µM) | COc1ccc2cc(C#N)c(SCC(=O)Nc3nonc3C)nc2c1
> 46.4 | O=S(=O)(NCc1ccc2c(c1)OCO2)c1ccc(F)cc1
> 53.7 | COc1ccc2c(ccc[n+]2CC(=O)c2ccccc2)c1.[Br-]
37.1 (≈ 124 µM) | COc1ccc(C(=O)NCCNC(=O)c2cnccn2)cc1
> 32 | O=c1c2c([nH]c3ccccc13)CCCCC2
1.6 (≈ 6.05 µM) | O=C(Nc1ccc(F)cc1)NC1CCCCCCC1
8.2 (≈ 27.6 µM) | Clc1cccc(CN2CCc3c([nH]c4ccccc34)C2)c1
10.7 (≈ 33.9 µM) | COC(=O)Cc1cc(=O)[nH]c(/N=C(\N)Nc2cccc(C)c2)n1
> 52.9 | Cc1ccc(S(=O)(=O)CCC(=O)Nc2sccc2C(N)=O)cc1
44.9 (≈ 147 µM) | CC1(C)CC(=O)C(C(O)c2cccc([N+](=O)[O-])c2)C(C)(C)N1 (stereo not given)
3 (≈ 8.66 µM) | CC(=O)Nc1ccc(NC(=O)CSc2ccc([N+](=O)[O-])cn2)cc1
< 0.4 | COc1ccc(OC)c(CNc2c(C=O)c(=O)[nH]c3ccccc23)c1
42.9 (≈ 142 µM) | COc1cc(OC)c(C(=O)NCc2cccnc2)cc1OC
29.4 (≈ 84.6 µM) | CC1CCN(CCn2c(=S)[nH]c3cc4c(cc3c2=O)OCO4)CC1
> 50.5 | Cc1ccc(C(=O)Nc2ccccc2C(=O)N2CCCCCC2)cc1
1.1 (≈ 3.7 µM) | Cc1ccc(NC(=O)O/N=C/c2ccc(N(C)C)cc2)cc1
19.3 (≈ 81.3 µM) | Nc1ccc2oc(=O)c(-c3ccccc3)cc2c1
40.8 (≈ 141 µM) | Cc1ccc(NC(=O)CC2(CC(=O)O)CCCC2)c(C)c1
35.9 (≈ 149 µM) | CCN(Cc1ccccc1)C(=O)c1cccnc1
1.6 (≈ 5.06 µM) | CCc1sc(C(=O)Nc2ccc3nc(C)sc3c2)cc1C

solubility kinetic [µg/mL] | SMILES
> 42.2 | CC(C)CC(=O)N/N=C/c1c(N)n(C)c(=O)n(C)c1=O
25.3 (≈ 144 µM) | C#CCOc1ccccc1C(N)=O
> 44.3 | O=C1C(=O)c2ccccc2C(O)=C1c1cccc([N+](=O)[O-])c1
34.7 (≈ 123 µM) | CN(C(=O)/C=C/c1ccc2c(c1)OCO2)c1ccccc1
> 43.6 | Cl.Nc1cnccc1Oc1cccc(C(F)(F)F)c1
30.9 (≈ 107 µM) | CC(C)(C)C(=O)O/N=C(\N)c1c(Cl)cccc1Cl
40.2 (≈ 148 µM) | Cc1nc2cc(C(=O)N3CCN(C)CC3)ccc2n1C
31.3 (≈ 141 µM) | OC(CCN1CCOCC1)c1ccccc1 (stereo not given)
> 34.1 | N#Cc1ccc(CSc2ncccn2)cc1
32.3 (≈ 97.7 µM) | CC(C)(C)c1ccc(/C=C/C(=O)NCCCN2CCOCC2)cc1
4.5 (≈ 12.1 µM) | COc1ccc(C(=O)C2CCN(CC(=O)Nc3ccccc3F)CC2)cc1
> 49.1 | COc1ccc(CC(=O)NC(C)CCc2ccccc2)cc1OC (stereo not given)
> 59.5 | Cc1ccc(S(=O)(=O)N(C)C)cc1NC(=O)C(C)OC(=O)C1CCCCC1 (stereo not given)
7.8 (≈ 24.7 µM) | Nc1cc(=O)[nH]c(SCC(=O)Nc2ccc3c(c2)CCC3)n1
18.1 (≈ 70.9 µM) | COC(=O)c1c(NC(=O)C(C)(C)C)csc1C
1.9 (≈ 7.47 µM) | O=C(Nc1nccs1)c1cccc2ccccc12
> 68.2 | Cc1cnc(C(=O)OCC(=O)Nc2cc(S(=O)(=O)N3CCOCC3)ccc2Cl)cn1
5.3 (≈ 13.3 µM) | COc1ccc(CCNC(=O)COC(=O)/C=C/c2cc(OC)ccc2OC)cc1
> 52 | O=C(COC(=O)CN1CCSC1=O)Nc1ccc(F)cc1Cl
19.1 (≈ 61.5 µM) | CCOc1ccc2[nH]c(SCC(=O)OC)c([N+](=O)[O-])c2c1
< 0.6 | CCOC(=O)c1c(O)cc(C)cc1Nc1ccccc1
> 44.6 | CCn1cc(S(=O)(=O)NCCc2ccc(F)cc2)cn1
35.4 | COCCNc1nc(-c2cc(C)c(C)cc2C)cs1.Cl
13.8 (≈ 44 µM) | CCOc1ccc(C2NC(=O)c3ccccc3O2)cc1OCC (stereo not given)

solubility kinetic [µg/mL] | SMILES
> 69.2 | CC(=O)Nc1ccc(NC(=O)COC(=O)c2cc(S(=O)(=O)N3CCCC3)ccc2O)cc1
45.8 (≈ 132 µM) | Cc1ccnc(NC(=O)CCNS(=O)(=O)c2ccc(C)c(C)c2)c1
2.2 (≈ 6.98 µM) | CC(=O)c1ccccc1NC(=O)COC(=O)c1cc(C)oc1C
> 41.5 | O=C(c1cc(-c2ccccc2Cl)on1)N1CCCC1
22.7 (≈ 64.2 µM) | Cc1cccc(C(=O)Nc2ccc(NC(=O)CN3CCOCC3)cc2)c1
5.5 (≈ 13.7 µM) | N#Cc1ccc(OCC(=O)Nc2ccc(S(=O)(=O)N3CCOCC3)cc2)cc1
33.7 (≈ 120 µM) | CN1C(N)=NC(=O)/C1=C\c1ccc(Br)cc1
3.7 (≈ 12.5 µM) | CCOc1ccc(NC(=O)N2CCc3ccccc3C2)cc1
42.3 (≈ 149 µM) | CC(C)CCNc1nc(N)c([N+](=O)[O-])c(NCCO)n1
> 43.4 | O=C(O)C1C2C=CC(C2)C1C(=O)NCc1ccccc1F (stereo not given)
41.9 (≈ 133 µM) | CN(CC(=O)Nc1ccc(F)cc1)C(=O)CCc1ccccc1
> 50.5 | O=C(CN1CCOCC1)NNc1c2ccccc2nc2ccccc12
37.9 (≈ 130 µM) | O=C(NCc1ccc2c(c1)OCO2)c1cccnc1Cl
> 46.6 | Cc1cccc(NC(=O)CCN2CC(C)CC(C)C2)c1.Cl (stereo not given)
> 55.9 | CCOC(=O)C1CCN(CC(=O)c2c(C)n(C)c3ccc(OC)cc23)CC1
> 54.4 | NC(=O)CN(Cc1ccccc1)S(=O)(=O)c1ccc2c(c1)OCCO2
3.1 (≈ 9.55 µM) | Nc1nc(Nc2ccc(Cl)cc2)nc(NCCO)c1[N+](=O)[O-]
53.1 (≈ 149 µM) | CS(=O)(=O)CCSc1ncccc1C(=O)NCc1cccs1
> 43.2 | CCOc1cc(C(=O)NC)cc(Br)c1OC
17.3 (≈ 41.1 µM) | CCN(CC)S(=O)(=O)c1ccc(/C=C/C(=O)OCC(=O)NCc2ccco2)cc1
37.3 (≈ 129 µM) | O=C1Cc2ccccc2C(=O)N1c1ccc(F)cc1Cl
45.7 (≈ 129 µM) | CN1CC(=O)N(CC(=O)Nc2ccc(OCc3ccccc3)cc2)C1=O
42.9 (≈ 144 µM) | COc1ccc(NC(=O)c2ccc3nc[nH]c3c2)c(OC)c1

SMILES | solubility kinetic [µg/mL]
CCCNCC(=O)Nc1cccc(S(=O)(=O)NC2=NCCCCC2)c1.O=C(O)C(=O)O | > 68.5
